# Test results reported in US20130022612A1, “METHODS AND COMPOSITIONS FOR MALARIA PROPHYLAXIS” (priority 2004, published 2013).
# Experiments:
# [1] = tested on: CSP processing in P. berghei sporozoites; assay: Pulse-chase metabolic labeling of CSP processing, P. berghei sporozoites; format: cell-based, Plasmodium berghei
# Protocol: P. berghei sporozoites were incubated in Dulbecco's Modified Eagle Medium (DMEM; Invitrogen, Carlsbad, Calif.) without cysteine (Cys) and methionine (Met), containing 1% BSA and […] L-[35 S]-Cys/Met (Pro-Mix, Amersham Pharmacia) in a total volume of 200 μl for one hour at 28° C. They were then washed and resuspended in DMEM/BSA containing unlabeled Cys/Met at 28° C. for the indicated time in the presence or absence of the indicated protease inhibitor. Sporozoites were then lysed and CSP was immunoprecipitated and analyzed by autoradiography as outlined below.
# When sporozoites were incubated with specific inhibitors, their concentrations were as follows: 10 […] E-64; 1 mM phenylmethylsulfonyl fluoride (PMSF); 0.3 mM aprotinin; 100 mM 3,4 DCl; 75 mM leupeptin; 100 mM TLCK; 1 mM pepstatin; 1 mM 1,10 phenanthroline; 5 mM EDTA; 0.5% sodium azide. To check for toxicity by propidium iodide (PI) staining, P. berghei sporozoites were incubated in the presence or absence of the various protease inhibitors for two hours at 28° C., PI was then added to a final concentration of […] for five minutes at 28° C. The sporozoites were washed and viewed under a fluorescent microscope.
# Metabolically-labeled sporozoites were lysed in lysis buffer (1% Triton X-100, 50 mM Tris-HCl pH 8.0) with 150 mM NaCl containing a protease inhibitor cocktail (Complete Mini-Tablets, Roche) for one hour at 4° C. The lysates were incubated with mAb 3D11 conjugated to agarose overnight at 4° C. with agitation, and the beads were then washed sequentially with lysis buffer containing 150 mM NaCl, high salt buffer (500 mM NaCl in lysis buffer), lysis buffer without added NaCl, and pre-elution buffer (0.5% Triton X-100, 10 mM Tris-HCl pH 6.8). CSP was eluted with 1% SDS in 0.1 M glycine pH 1.8, neutralized with 1.5 M Tris-HCl pH 8.8, and run on a 7.5% SDS-polyacrylamide gel under nonreducing conditions.
# P. berghei sporozoites were metabolically labeled as previously described (Bruna-Romero, O., et al.). Briefly, sporozoites were labeled in Dulbecco's Modified Eagle Medium containing 1% BSA (DMEM/BSA) without Cys/Met and with 400 μCi/ml L-[^35S]Cys/Met for one hour at 28° C. and chased in DMEM/BSA with Cys/Met at 28° C. in the presence of 10 μM E-64 or the indicated concentrations of allicin. Labeled sporozoites were lysed in 1% Triton X-100/150 mM NaCl/50 mM Tris-HCl pH 8.0 with protease inhibitors, and lysates were incubated with 3D11-sepharose overnight at 4° C. CSP was eluted with 1% SDS in 0.1 M glycine pH 1.8, neutralized with Tris-HCl pH 8.8, and run on a 7.5% SDS-polyacrylamide gel under nonreducing conditions. The gel was fixed, enhanced with Amplify (Amersham Pharmacia), dried and exposed to film.
# P. berghei sporozoites were metabolically labeled in DMEM without Cys/Met, 1% BSA and 400 μCi/ml L-[^355]-Cys/Met for 1 hour at 28° C. and then kept on ice or chased at 28° C. for the indicated times. Details of this procedure are outlined in (Coppi et al., 2005). To investigate the kinetics of processing in the presence of hepatocytes, sporozoites were labeled as above, chased at 28° C. for 1 hour and then centrifuged (300×g) onto glass coverslips with Hepa 1-6 cells and incubated at 37° C. for 5, 15 or 30 minutes. To investigate the effect of antibodies on CSP cleavage, sporozoites were labeled as above and then chased for 2 hours in the presence of the indicated antibody. Monoclonal antibodies were used as purified antibodies at the indicated concentrations and the IgG fraction of the NH2-terminal antiserum was used after isolation by Protein A (Vivapure maxiprepA; Sartorius, Edgewood, N.Y.). In all cases, labeled sporozoites (with or without Hepa 1-6 cells) were lysed and labeled CSP was immunoprecipitated with mAb-3D11 conjugated to sepharose or in the case of P. falciparum CSP, with mAb-2A10 conjugated to sepharose, as previously described (Coppi et al., 2005). CSP was eluted from the beads, run on an SDS-PAGE gel which was enhanced, dried and exposed to film. […]
# [2] = tested on: P. berghei sporozoites
# Protocol: Panel A illustrates P. berghei sporozoites were metabolically labeled with [35 S]-Cys/Met and then washed and kept on ice (lane 1) or chased with cold medium for two hours at 28° C., in the absence (lane 2) or presence of the indicated protease inhibitors (lanes 3-11). After the chase, sporozoites were lysed, CSP was immunoprecipitated and analyzed by SDS-PAGE and autoradiography (abbreviations: Apr, aprotinin; DCl, 3,4 DCl; Leu, leupeptin; Pep, pepstatin; Phen, 1,10 phenanthroline). Panel B illustrates P. falciparum sporozoites were metabolically labeled as above and then kept on ice (lane 1) or chased with cold medium for ninety minutes in the absence (lane 2) or presence of E-64 (lane 3). Samples were processed as outlined above. Panel C illustrates P. berghei sporozoites were preincubated with buffer (lane 1) or the indicated compounds, washed, metabolically labeled with [^35S]-Cys/Met, lysed, and CSP was immunoprecipitated and analyzed by SDS-PAGE and autoradiography. (Abbreviations: Az=sodium azide).
# In addition to the above, pulse-chase metabolic labeling experiments were performed with sporozoites of the human malaria parasite, Plasmodium falciparum. […] In order to insure that the protease inhibitors were not toxic to sporozoites, sporozoites were incubated with the various inhibitors for two hours and then propidium iodide (hereinafter, “PI”) was added, which is a fluorescent molecule that enters permeabilized cells.
# [3] = tested on: P. falciparum sporozoites; assay: Sporozoite invasion assay, P. falciparum on HepG2 cells; format: cell-based, Plasmodium falciparum; conditions: sporozoites preincubated with E-64, HepG2 cells
# Protocol: %invasion=total sporozites−extracellular sporozites×100/total sporozites
# Hepa 1-6 cells were seeded in Permanox eight-chambered Lab-Tek wells (2.5×10^5/well) and allowed to grow overnight. On the day of the experiment, 5×10^5 P. berghei wild type, RCon or ΔRI sporozoites were added per well. Sporozoites pre-incubated with 10 μM E-64d for 15 minutes at 25° C. were used as controls. For experiments testing the effect of anti-repeat region antibodies on invasion, HepG2 cells were used and P. berghei or P. falciparum sporozoites were added to the cells in the presence of the indicated antibody. After 1 hour at 37° C., cells were washed, fixed, and sporozoites were stained with a double staining assay that distinguishes intracellular from extracellular sporozoites (Renia et al., 1988). To quantify EEF development, cells with sporozoites were grown for an additional 2 days after which they were fixed with methanol, stained with mAb 2E6 followed by goat anti-mouse Ig conjugated to FITC. In all assays, at least 50 fields per well were counted and each point was performed in triplicate.
# [4] = tested on: P. yoelii sporozoites; conditions: sporozoites preincubated with E-64
# Protocol: For assays with P. berghei and P. yoelii, Hepa 1-6 cells (ATCC CRL-1830, American Type Culture Collection, Manassas, Va.), a mouse hepatoma cell line permissive for P. yoelii sporozoite development (Mota, et al. (2000)) was seeded (8×10^4 cells/well) in Lab-Tek permanox chamber slides (Nalgene Nunc Corp., Naperville, II.) and grown until confluent.
# For assays with P. falciparum, HepG2 cells (ATCC HB8065, American Type Culture Collection) were used. On the day of the experiment, sporozoites were pre-incubated with DMEM/BSA alone or with the indicated protease inhibitor for two hours at 28° C. and plated on cells in the continued presence of the inhibitor for one hour at 37° C.
# In a control, Hepa 1-6 cells were incubated with E-64 for two hours at 37° C., the medium was removed and then untreated P. berghei sporozoites were added. The inhibitors used were: 10 mM E-64; 1 mM PMSF; 75 mM leupeptin; 0.3 mM aprotinin; 100 mM 3,4 DCl; 1 mM pepstatin. […] Cells were then permeabilized with cold methanol and stained again with mAbs 3D11, 2F6 or 2A10 followed by anti-mouse Ig conjugated to FITC. All sporozoites were FITC-positive whereas only extracellular sporozoites stained with rhodamine. The percentage of sporozoites that invaded the cells is calculated using the following equation:
SMILES,"effect on CSP processing ([1]; two hour chase at 28° C., 10 mM E-64, 1 mM PMSF, 0.3 mM aprotinin, 100 mM 3,4 DCl, 75 mM leupeptin, 100 mM TLCK, 1 mM pepstatin, 1 mM 1,10 phenanthroline, 5 mM EDTA)",CSP synthesis after incubation with inhibitor [2],effect on invasion by P. falciparum sporozoites [3],effect on invasion by P. yoelii sporozoites [4],"CSP cleavage ([1]; 50 μM allicin for 10 minutes, then diluted to 4.2 μM for the remainder of the chase)","CSP cleavage ([1]; 10, 25, and 50 μM allicin, two hour chase)",degree of inhibition of CSP cleavage relative to E-64 ([1]; allicin versus 10 μM E-64)
"CC(C)C[C@H](NC(=O)[C@H]1O[C@@H]1C(=O)O)C(=O)NCCCCN=C(N)N (relative stereo) [E-64, L-trans-epoxysuccinyl-leucylamide-[4-guanido]-butane]",inhibited CSP processing,not affected,significantly inhibited,significantly inhibited,–,–,–
C=CCS[S+]([O-])CC=C (stereo not shown) [allicin],–,–,–,–,prevented CSP cleavage to the same extent as when 50 μM allicin was present during the entire chase,inhibited,comparable to that observed with E-64
